pIC50: −log10 of the molar value.
How the values were obtained:
[1] = biological target: T1, OE19 (3A1) (Homo sapiens, UniProt P30838); experiment: Cellular ALDEFLUOR assay in OE19 cells (preferential ALDH3A1 expression)
T1 sequence (P30838 1-453): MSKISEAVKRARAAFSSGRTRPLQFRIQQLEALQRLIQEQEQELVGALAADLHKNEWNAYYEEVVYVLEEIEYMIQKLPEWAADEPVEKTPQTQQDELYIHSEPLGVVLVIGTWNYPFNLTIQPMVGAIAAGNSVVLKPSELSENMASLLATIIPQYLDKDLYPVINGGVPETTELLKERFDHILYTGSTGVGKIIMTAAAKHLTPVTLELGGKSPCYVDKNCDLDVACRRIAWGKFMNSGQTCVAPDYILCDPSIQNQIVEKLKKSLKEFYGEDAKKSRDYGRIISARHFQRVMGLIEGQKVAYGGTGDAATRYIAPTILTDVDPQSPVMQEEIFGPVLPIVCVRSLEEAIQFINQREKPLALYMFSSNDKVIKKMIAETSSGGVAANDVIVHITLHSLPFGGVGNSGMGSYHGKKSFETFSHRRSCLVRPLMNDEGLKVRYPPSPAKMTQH

[2] = biological target: T2, Human ALDH3A1 (Homo sapiens, UniProt P30838); experiment: ALDH3A1 biochemical assay (benzaldehyde/NADP+, diaphorase-resazurin readout, 1,536-well)
T2 sequence (P30838 1-453): T1 sequence (P30838 1-453)

[3] = Table S5, biochemical curve class
[4] = Table S4, biochemical curve class

Structure (SMILES) | Cell_Efficacy ([1]; Table S5, OE19 cells) | Cell_CC-v2 ([1]; Table S5, cellular curve class) | AC50 [2] | Efficacy ([2]; Table S5, biochemical) | CC-v2 [2, 3] | AC50 [1] | Cell_Efficacy ([1]; Table S4, OE19 cells) | Cell_CC-v2 ([1]; Table S4, cellular curve class) | Efficacy ([2]; Table S4, biochemical) | CC-v2 [2, 4] | pIC50 ([1]; cellular IC50 (Aldefluor), OE19 cells) | pIC50 ([2]; ALDH3A1 biochemical IC50)
Cc1cccc(CNC(=O)c2csc(N3CCN(c4ccc(Br)cc4)CC3)n2)c1 [NCGC01211165-01] | – | – | 810 nM | – | – | 700 nM | -91.24 | -1.1 | -72.77 | -1.2 | – | –
Cc1cccc(CNC(=O)c2csc(N3CCN(c4cc(C(F)(F)F)nc5ccccc45)CC3)n2)c1 [NCGC01210239-01] | – | – | 810 nM | – | – | 9880 nM | -51.72 | -2.4 | -79.44 | -1.1 | – | –
Cc1cccc(CNC(=O)c2csc(N3CCN(c4cccc(C(F)(F)F)n4)CC3)n2)c1 [NCGC01210535-01] | – | – | 580 nM | – | – | 7850 nM | -90.86 | -1.1 | -96.11 | -1.1 | – | –
COc1c(F)cc(N2CCN(c3nc(C(=O)NCc4cccc(C)c4)cs3)CC2)cc1F [NCGC01211123-01] | – | – | 580 nM | – | – | 1760 nM | -94.45 | -1.2 | -77.80 | -1.2 | – | –
Cc1cccc(CNC(=O)c2csc(N3CCN(c4cccc(C(F)(F)F)c4)CC3)n2)c1 [Compound 5] | – | – | 230 nM | – | – | 3130 nM | -101.21 | -2.2 | -100.07 | -1.1 | 5.50 | 6.64
Cc1ccc(-c2cccc(CNC(=O)c3csc(N4CCN(c5cccc(C(F)(F)F)c5)CC4)n3)c2)cc1 [Compound 19] | -77.01 | -1.1 | 23.7 nM | -83.86 | -1.1 | 10.2 nM | – | – | – | – | – | –
Cc1cccc(CNC(=O)c2csc(N3CCN(c4ccc(N5CCOCC5)cc4)CC3)n2)c1 [NCGC01211186-01] | – | – | 4080 nM | – | – | 3130 nM | -98.82 | -1.1 | -37.13 | -1.2 | – | –
Cc1cccc(CNC(=O)c2csc(N3CCN(c4cccc(O)c4)CC3)n2)c1 [NCGC01211119-01] | – | – | 2570 nM | – | – | 15700 nM | -77.14 | -1.2 | -61.43 | -1.2 | – | –
Cc1cccc(CNC(=O)c2csc(N3CCN(c4cccc([S+](=O)([O-])C(F)(F)F)c4)CC3)n2)c1 [NCGC01210726-01] | – | – | 18200 nM | – | – | 15700 nM | -81.37 | -1.2 | -54.32 | -1.2 | – | –
O=C(NCc1ccc2ccccc2c1)c1csc(N2CCN(c3cccc(C(F)(F)F)c3)CC2)n1 [Compound 17] | -93.35 | -1.1 | 11.9 nM | -92.05 | -1.1 | 40.7 nM | – | – | – | – | – | –
Cc1cccc(CNC(=O)c2csc(N3CCN(c4cccc(C)c4)CC3)n2)c1 [NCGC01211399-01] | – | – | 1150 nM | – | – | 5560 nM | -101.59 | -1.3 | -77.88 | -1.2 | – | –
Cc1cccc(CNC(=O)c2csc(N3CCN(c4ccc(C5(C#N)CCCC5)cc4)CC3)n2)c1 [NCGC01210598-01] | – | – | 1020 nM | – | – | 3930 nM | -104.17 | -2.1 | -62.83 | -1.2 | – | –
Cc1cccc(CNC(=O)c2csc(N3CCN(c4ncccc4C(F)(F)F)CC3)n2)c1 [NCGC01210654-01] | – | – | 1020 nM | – | – | 35100 nM | -81.56 | -2.2 | -95.69 | -1.1 | – | –
CCOC(=O)Cc1ccc(N2CCN(c3nc(C(=O)NCc4cccc(C)c4)cs3)CC2)cc1 [NCGC01212809-01] | – | – | 3240 nM | – | – | 3930 nM | -80.26 | -1.1 | -99.09 | -1.1 | – | –
Cc1cccc(CNC(=O)c2csc(N3CCN(Cc4cccc(C)c4)CC3)n2)c1 [NCGC01211187-01] | – | – | 910 nM | – | – | 4420 nM | -121.01 | -2.1 | -93.83 | -1.1 | – | –

Continued, values first:

Cell_Efficacy ([1]; Table S5, OE19 cells) | Cell_CC-v2 ([1]; Table S5, cellular curve class) | AC50 [2] | Efficacy ([2]; Table S5, biochemical) | CC-v2 [2, 3] | AC50 [1] | Cell_Efficacy ([1]; Table S4, OE19 cells) | Cell_CC-v2 ([1]; Table S4, cellular curve class) | Efficacy ([2]; Table S4, biochemical) | CC-v2 [2, 4] | pIC50 ([1]; cellular IC50 (Aldefluor), OE19 cells) | pIC50 ([2]; ALDH3A1 biochemical IC50) | Structure (SMILES)
0.00 | 4 | 50.1 nM | -90.79 | -1.1 | – | – | – | – | – | – | – | O=C(NCc1c(Cl)cccc1Br)c1csc(N2CCN(c3cccc(C(F)(F)F)c3)CC2)n1 [NCGC01407972-01]
-85.43 | -1.1 | 3.6 nM | -107.41 | -1.1 | 2160 nM | – | – | – | – | – | – | O=C(NCc1cc(F)cc(Br)c1)c1csc(N2CCN(c3cccc(C(F)(F)F)c3)CC2)n1 [NCGC01397297-01]
-100.81 | -1.1 | 59.6 nM | -88.60 | -1.1 | 644 nM | – | – | – | – | – | – | Cc1ccc(CNC(=O)c2csc(N3CCN(c4cccc(C(F)(F)F)c4)CC3)n2)cc1C(F)(F)F [NCGC01407772-01]
-92.16 | -1.1 | 562 nM | -31.39 | -1.2 | 501 nM | – | – | – | – | – | – | O=C(NCCc1cccc(OCCCc2ccccc2)c1)c1csc(N2CCN(c3cccc(C(F)(F)F)c3)CC2)n1 [NCGC01407986-01]
– | – | 1020 nM | – | – | 990 nM | -85.92 | -1.1 | -96.39 | -1.1 | – | – | Cc1cccc(CNC(=O)c2csc(N3CCN(c4cccc(F)c4)CC3)n2)c1 [NCGC01219288-01]
-85.75 | -1.1 | 355 nM | -39.06 | -1.2 | 100 nM | – | – | – | – | – | – | O=C(Nc1ccc(CNC(=O)c2csc(N3CCN(c4cccc(C(F)(F)F)c4)CC3)n2)cc1)c1ccc(F)cc1 [NCGC01407975-01]
– | – | 1290 nM | – | – | – | 0.00 | 4 | -92.59 | -1.1 | – | – | Cc1cccc(CNC(=O)c2csc(N3CCN(c4cncc(Br)c4)CC3)n2)c1 [NCGC01212814-01]
-88.16 | -1.1 | 12.6 nM | -100.15 | -1.1 | 965 nM | – | – | – | – | – | – | O=C(NCc1ccc(Cl)c(F)c1)c1csc(N2CCN(c3cccc(C(F)(F)F)c3)CC2)n1 [NCGC01407936-01]
-106.03 | -1.3 | 78.2 nM | -73.44 | -1.2 | 8460 nM | – | – | – | – | – | – | O=C(NCc1ccc(-c2ccncc2)nc1)c1csc(N2CCN(c3cccc(C(F)(F)F)c3)CC2)n1 [NCGC01397294-01]
-93.55 | -1.3 | 35.5 nM | -100.75 | -1.1 | 4310 nM | – | – | – | – | – | – | O=C(NCc1ccc(F)c(F)c1)c1csc(N2CCN(c3cccc(C(F)(F)F)c3)CC2)n1 [NCGC01407951-01]
-68.37 | 5 | 891 nM | -74.78 | -1.2 | 11.2 nM | – | – | – | – | – | – | CC(C)(O)c1ccc(CNC(=O)c2csc(N3CCN(c4cccc(C(F)(F)F)c4)CC3)n2)cc1 [NCGC01408044-01]
0.00 | 4 | – | -7.18 | 4 | – | – | – | – | – | – | – | CC(C)(C)c1cc(CNC(=O)c2csc(N3CCN(c4cccc(C(F)(F)F)c4)CC3)n2)cc(C(C)(C)C)c1 [NCGC01407780-01]
-38.73 | -2.3 | – | -23.04 | 4 | 28200 nM | – | – | – | – | – | – | NC(=O)c1csc(N2CCN(c3cccc(C(F)(F)F)c3)CC2)n1 [NCGC01407961-01]
-33.22 | 5 | – | -16.69 | 4 | 50100 nM | – | – | – | – | – | – | O=C(NCc1cccc(C(=O)N2CCCCC2)c1)c1csc(N2CCN(c3cccc(C(F)(F)F)c3)CC2)n1 [NCGC01407977-01]
-92.90 | -1.3 | 398 nM | -80.39 | -1.1 | 31.6 nM | – | – | – | – | – | – | O=C(COc1cccc(CNC(=O)c2csc(N3CCN(c4cccc(C(F)(F)F)c4)CC3)n2)c1)NC1CC1 [NCGC01407783-01]
0.00 | 5 | 398 nM | -29.26 | -1.4 | – | – | – | – | – | – | – | Cc1cc(CNC(=O)c2csc(N3CCN(c4cccc(C(F)(F)F)c4)CC3)n2)cc(C)c1Br [NCGC01407759-01]
-88.39 | -1.2 | 23.7 nM | -97.73 | -1.1 | 811 nM | – | – | – | – | – | – | O=C(NCc1cccc(Cl)c1)c1csc(N2CCN(c3cccc(C(F)(F)F)c3)CC2)n1 [NCGC01407982-01]

— article PMC13266984 (Journal of medicinal chemistry, 2026)
